Patent US20150087627A1, “COMBINATION OF KINASE INHIBITORS AND USES THEREOF” (Intellikine LLC, priority 2011, published 2015)
pIC50: −log10 of the molar value. Read-outs that look alike come from different tables or passages of the source.

What was measured:
Type in all cases: biochemical
PI3K α (p110α/p85α) = target: T1, PI3K α (p110α/p85α) (Homo sapiens, UniProt P42336); experiment: PI 3-Kinase (human) HTRF assay, PI3K α; conditions: read-out: PI3K α IC50
T1 construct: purchased Upstate / Millipore Corporation
T1 sequence (P42336 whole entry): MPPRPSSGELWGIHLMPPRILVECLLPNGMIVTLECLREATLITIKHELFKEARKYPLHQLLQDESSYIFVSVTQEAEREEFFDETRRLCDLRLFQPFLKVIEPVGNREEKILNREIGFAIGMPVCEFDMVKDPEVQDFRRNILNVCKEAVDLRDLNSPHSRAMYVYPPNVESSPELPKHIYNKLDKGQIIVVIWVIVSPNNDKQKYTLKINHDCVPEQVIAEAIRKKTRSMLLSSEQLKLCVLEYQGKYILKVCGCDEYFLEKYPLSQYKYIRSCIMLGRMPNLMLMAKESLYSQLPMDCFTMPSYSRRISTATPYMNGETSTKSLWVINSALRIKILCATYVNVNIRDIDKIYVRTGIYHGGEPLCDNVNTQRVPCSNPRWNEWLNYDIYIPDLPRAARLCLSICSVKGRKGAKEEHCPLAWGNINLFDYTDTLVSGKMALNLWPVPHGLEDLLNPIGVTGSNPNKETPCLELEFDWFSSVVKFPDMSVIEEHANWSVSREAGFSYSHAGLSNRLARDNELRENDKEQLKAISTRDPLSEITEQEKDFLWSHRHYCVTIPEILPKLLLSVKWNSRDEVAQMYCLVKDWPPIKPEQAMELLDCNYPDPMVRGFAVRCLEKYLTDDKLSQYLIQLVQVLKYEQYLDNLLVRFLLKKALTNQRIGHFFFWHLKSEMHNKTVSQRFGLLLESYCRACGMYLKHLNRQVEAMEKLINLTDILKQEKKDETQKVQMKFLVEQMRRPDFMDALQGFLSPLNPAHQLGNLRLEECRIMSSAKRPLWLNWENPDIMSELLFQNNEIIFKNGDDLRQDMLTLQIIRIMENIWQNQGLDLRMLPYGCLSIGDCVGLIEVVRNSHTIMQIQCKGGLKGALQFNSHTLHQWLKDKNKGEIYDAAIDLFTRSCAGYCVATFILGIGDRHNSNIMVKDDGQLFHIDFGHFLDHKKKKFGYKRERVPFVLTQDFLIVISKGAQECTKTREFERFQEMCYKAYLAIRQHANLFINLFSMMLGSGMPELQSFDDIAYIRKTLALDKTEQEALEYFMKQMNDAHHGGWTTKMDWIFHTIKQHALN
T1 sequence (P27986 whole entry partner): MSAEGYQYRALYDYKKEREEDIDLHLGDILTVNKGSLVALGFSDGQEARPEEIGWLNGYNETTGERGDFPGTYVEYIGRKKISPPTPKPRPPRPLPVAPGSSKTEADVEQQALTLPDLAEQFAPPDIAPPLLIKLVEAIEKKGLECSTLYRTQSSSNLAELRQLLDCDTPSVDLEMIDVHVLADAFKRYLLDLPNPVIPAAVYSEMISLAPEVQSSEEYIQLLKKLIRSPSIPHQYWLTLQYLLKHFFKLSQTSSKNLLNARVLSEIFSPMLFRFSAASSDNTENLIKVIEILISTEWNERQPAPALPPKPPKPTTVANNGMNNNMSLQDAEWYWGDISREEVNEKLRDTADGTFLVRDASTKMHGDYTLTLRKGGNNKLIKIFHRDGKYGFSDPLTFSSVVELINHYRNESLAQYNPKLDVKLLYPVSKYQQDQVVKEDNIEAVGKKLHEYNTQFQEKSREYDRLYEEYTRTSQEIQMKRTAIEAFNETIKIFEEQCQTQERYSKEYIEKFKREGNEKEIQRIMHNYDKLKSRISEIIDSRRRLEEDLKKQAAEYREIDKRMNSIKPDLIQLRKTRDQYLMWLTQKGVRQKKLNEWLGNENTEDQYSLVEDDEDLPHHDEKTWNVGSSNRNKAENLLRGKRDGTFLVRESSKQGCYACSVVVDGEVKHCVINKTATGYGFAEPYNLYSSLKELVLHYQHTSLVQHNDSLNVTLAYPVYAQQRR
Method: Briefly, the assay is a time resolved FRET assay that indirectly measures PIP3 product formed by the activity of a PI3-K. The kinase reaction is performed in a microtiter plate (e.g., a 384 well microtiter plate). The total reaction volume is approximately 20 ul per well. In the first step, each well receives 2 ul of test compound in 20% dimethylsulphoxide resulting in a 2% DMSO final concentration. […] The plate is sealed and incubated for 15 minutes at room temperature. […] The plate is sealed and incubated for 1 hour at room temperature. The reaction is stopped by adding 5 ul of Stop Solution per well and then 5 ul of Detection Mix is added per well. The plate is sealed, incubated for 1 hour at room temperature, and then read on an appropriate plate reader. Data is analyzed and IC50s are generated using GraphPad Prism 5.

PI3K β (p110β/p85α) = target: T2, PI3K β (p110β/p85α) (Homo sapiens, UniProt P42338); experiment: PI 3-Kinase (human) HTRF assay, PI3K β; conditions: read-out: PI3K β IC50
T2 construct: purchased Upstate / Millipore Corporation
T2 sequence (P42338 whole entry): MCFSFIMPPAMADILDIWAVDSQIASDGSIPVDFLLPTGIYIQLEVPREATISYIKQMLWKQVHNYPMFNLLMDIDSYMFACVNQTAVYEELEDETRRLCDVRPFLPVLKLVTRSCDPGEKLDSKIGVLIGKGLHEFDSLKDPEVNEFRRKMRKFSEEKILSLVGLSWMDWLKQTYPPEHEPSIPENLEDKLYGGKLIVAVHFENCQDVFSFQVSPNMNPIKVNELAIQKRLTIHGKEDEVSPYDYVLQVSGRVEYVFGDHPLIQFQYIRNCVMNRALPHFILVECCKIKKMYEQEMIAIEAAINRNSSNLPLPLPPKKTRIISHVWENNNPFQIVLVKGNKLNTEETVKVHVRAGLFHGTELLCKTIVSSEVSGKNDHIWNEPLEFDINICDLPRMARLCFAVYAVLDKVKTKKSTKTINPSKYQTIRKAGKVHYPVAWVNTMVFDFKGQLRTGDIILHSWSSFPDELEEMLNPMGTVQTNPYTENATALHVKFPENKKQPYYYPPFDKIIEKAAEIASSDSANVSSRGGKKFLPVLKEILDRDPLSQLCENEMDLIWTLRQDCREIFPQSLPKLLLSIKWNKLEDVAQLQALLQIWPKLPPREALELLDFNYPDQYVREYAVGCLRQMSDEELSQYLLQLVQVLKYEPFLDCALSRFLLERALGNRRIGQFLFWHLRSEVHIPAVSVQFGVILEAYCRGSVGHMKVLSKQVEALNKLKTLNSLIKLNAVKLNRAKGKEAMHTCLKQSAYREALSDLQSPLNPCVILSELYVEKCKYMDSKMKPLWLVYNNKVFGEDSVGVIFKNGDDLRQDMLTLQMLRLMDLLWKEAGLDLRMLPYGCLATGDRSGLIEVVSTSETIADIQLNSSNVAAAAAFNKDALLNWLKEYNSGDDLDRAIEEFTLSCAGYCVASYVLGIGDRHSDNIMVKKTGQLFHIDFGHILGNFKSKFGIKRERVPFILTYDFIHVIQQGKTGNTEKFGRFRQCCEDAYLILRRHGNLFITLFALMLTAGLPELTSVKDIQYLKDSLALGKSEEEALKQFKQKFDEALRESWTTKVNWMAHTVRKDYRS
T2 sequence (P27986 whole entry partner): as the sequence (P27986 whole entry partner) above

PI3K δ = target: T3, PI3K δ (Homo sapiens, UniProt O00329); experiment: PI 3-Kinase (human) HTRF assay, PI3K δ; conditions: read-out: PI3K δ IC50
T3 construct: purchased Upstate / Millipore Corporation
T3 sequence (O00329 whole entry): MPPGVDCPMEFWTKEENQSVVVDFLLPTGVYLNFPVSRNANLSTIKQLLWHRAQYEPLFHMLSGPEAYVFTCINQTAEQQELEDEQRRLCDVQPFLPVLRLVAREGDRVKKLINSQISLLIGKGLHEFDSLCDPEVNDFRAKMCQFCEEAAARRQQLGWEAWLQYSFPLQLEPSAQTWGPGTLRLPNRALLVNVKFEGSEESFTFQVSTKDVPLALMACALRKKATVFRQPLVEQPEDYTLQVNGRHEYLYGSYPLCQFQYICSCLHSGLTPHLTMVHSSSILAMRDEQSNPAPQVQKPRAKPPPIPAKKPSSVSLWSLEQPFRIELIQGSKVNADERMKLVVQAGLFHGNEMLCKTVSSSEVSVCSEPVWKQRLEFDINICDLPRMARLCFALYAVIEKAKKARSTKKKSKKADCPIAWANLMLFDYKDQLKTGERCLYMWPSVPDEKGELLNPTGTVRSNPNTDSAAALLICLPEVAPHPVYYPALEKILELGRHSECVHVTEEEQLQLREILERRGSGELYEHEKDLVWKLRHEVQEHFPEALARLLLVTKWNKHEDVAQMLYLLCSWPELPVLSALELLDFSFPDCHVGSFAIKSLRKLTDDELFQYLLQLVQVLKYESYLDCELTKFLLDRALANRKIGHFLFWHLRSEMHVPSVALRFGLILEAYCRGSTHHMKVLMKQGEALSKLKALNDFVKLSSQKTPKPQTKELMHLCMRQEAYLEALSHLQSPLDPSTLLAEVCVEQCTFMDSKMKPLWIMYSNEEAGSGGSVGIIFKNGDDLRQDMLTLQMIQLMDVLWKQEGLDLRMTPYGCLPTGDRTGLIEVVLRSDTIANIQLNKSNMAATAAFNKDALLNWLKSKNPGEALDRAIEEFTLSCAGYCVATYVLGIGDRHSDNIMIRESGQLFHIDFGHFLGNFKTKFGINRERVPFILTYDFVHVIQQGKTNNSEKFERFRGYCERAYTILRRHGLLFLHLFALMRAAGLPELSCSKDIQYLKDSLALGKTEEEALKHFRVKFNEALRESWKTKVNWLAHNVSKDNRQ
T3 sequence (P27986 whole entry partner): as the sequence (P27986 whole entry partner) above

mTOR = target: T4, mTOR (Homo sapiens, UniProt P42345); experiment: mTOR kinase inhibition assay (radiometric or LanthaScreen TR-FRET); conditions: read-out: mTORC IC50
T4 construct: purchased Invitrogen
Method: The cross-activity or lack thereof of one or more compounds of the present invention against mTor can be measured according to any procedures known in the art or methods disclosed below.
The compounds described herein can be tested against recombinant mTOR (Invitrogen) in an assay containing 50 mM HEPES, pH 7.5, 1 mM EGTA, 10 mM MgCl2, 2.5 mM, 0.01% Tween, 10 μM ATP (2.5 μCi of μ-32P-ATP), and 3 μg/mL BSA. Rat recombinant PHAS-1/4EBP1 (Calbiochem; 2 mg/mL) is used as a substrate. Reactions are terminated by spotting onto nitrocellulose, which is washed with 1M NaCl/1% phosphoric acid (approximately 6 times, 5-10 minutes each). Sheets are dried and the transferred radioactivity quantitated by phosphorimaging.
For instance, one can use Invitrogen's LanthaScreen™ Kinase assay to test the inhibitors of mTOR disclosed herein. This assay is a time resolved FRET platform that measures the phosphorylation of GFP labeled 4EBP1 by mTOR kinase. The kinase reaction is performed in a white 384 well microtiter plate. The total reaction volume is 20 ul per well and the reaction buffer composition is 50 mM HEPES pH7.5, 0.01% Polysorbate 20, 1 mM EGTA, 10 mM MnCl2, and 2 mM DTT. In the first step, each well receives 2 ul of test compound in 20% dimethylsulphoxide resulting in a 2% DMSO final concentration. […] The plate is sealed and incubated for 1 hour at room temperature. […] The plate is sealed, incubated for 1 hour at room temperature, and then read on a plate reader set up for LanthaScreen™ TR-FRET. Data is analyzed and IC50s are generated using GraphPad Prism 5.

PI3K γ (p110γ) = target: T5, PI3K γ (p110γ) (Homo sapiens, UniProt P48736); experiment: PI 3-Kinase (human) HTRF assay, PI3K γ; conditions: read-out: PI3K γ IC50
T5 construct: purchased Upstate / Millipore Corporation
T5 sequence (P48736 whole entry): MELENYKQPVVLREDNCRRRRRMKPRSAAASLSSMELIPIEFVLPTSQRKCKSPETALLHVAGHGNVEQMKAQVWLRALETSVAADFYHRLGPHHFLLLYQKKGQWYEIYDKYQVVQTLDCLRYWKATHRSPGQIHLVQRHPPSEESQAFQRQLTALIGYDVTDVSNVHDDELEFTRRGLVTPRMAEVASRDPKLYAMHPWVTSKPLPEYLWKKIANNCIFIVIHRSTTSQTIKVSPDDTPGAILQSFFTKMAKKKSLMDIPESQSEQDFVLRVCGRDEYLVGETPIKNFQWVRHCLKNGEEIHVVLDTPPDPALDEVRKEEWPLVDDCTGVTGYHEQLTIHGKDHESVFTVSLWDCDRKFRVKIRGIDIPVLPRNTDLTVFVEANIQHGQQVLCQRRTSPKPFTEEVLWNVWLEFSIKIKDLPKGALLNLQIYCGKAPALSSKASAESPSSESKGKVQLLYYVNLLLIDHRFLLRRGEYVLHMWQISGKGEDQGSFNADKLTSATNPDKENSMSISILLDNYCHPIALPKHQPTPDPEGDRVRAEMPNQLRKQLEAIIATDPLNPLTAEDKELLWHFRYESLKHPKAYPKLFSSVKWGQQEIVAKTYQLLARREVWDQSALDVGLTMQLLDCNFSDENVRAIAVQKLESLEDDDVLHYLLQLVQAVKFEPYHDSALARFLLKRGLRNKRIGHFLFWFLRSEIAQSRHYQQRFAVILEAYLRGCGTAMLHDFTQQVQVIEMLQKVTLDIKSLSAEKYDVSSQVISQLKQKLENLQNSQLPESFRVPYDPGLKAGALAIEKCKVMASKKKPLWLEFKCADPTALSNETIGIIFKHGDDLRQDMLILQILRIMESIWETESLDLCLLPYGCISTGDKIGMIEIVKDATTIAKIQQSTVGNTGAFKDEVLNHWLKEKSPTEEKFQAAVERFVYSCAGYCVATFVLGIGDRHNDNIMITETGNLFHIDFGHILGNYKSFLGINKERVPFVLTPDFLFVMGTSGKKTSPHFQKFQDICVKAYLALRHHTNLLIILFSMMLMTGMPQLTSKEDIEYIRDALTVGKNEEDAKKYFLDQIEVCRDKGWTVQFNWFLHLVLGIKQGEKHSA

Structure (SMILES) | pIC50 (PI3K α (p110α/p85α)) | pIC50 (PI3K β (p110β/p85α)) | pIC50 (PI3K δ) | pIC50 (mTOR) | pIC50 (PI3K γ (p110γ)) | pIC50 (PI3K α (p110α/p85α); Table 4 (PI3K α inhibitors)) | pIC50 (PI3K β (p110β/p85α); Table 4 (PI3K α inhibitors)) | pIC50 (mTOR; Table 4 (PI3K α inhibitors)) | pIC50 (PI3K δ; Table 4 (PI3K α inhibitors)) | pIC50 (PI3K γ (p110γ); Table 4 (PI3K α inhibitors))
Nc1nc2cccc(-c3ccc4nccc(-c5ccncc5)c4c3)c2o1 [Compound 15] | > 7.00 | > 7.00 | > 6.00 | > 7.00 |  |  |  |  |  | 
Nc1nc2cc(-c3ccc4ncnc(OC5CCOCC5)c4c3)ccc2o1 [Compound 47] | > 7.00 | > 6.00 | > 6.00 | > 7.00 |  |  |  |  |  | 
Nc1nc2cc(-c3ccc4ncc(-c5ccnc(N6CCOCC6)c5)n4c3)ccc2o1 [Compound 52] | > 7.00 |  | > 7.00 | > 5.00 |  |  |  |  |  | 
N#Cc1cnc2ccc(-c3ccc4oc(N)nc4c3)cc2c1Cl [Compound 77] |  |  |  | > 6.00 |  |  |  |  |  | 
CC(=O)N1CCC(N(C)c2ncnc3ccc(-c4ccc5oc(N)nc5c4)cc23)CC1 [Compound 137] | > 7.00 | > 6.00 | > 6.00 | < 5.00 |  |  |  |  |  | 
Nc1nc2cc(-c3ccc4nc(N)sc4c3)ccc2o1 [Compound 232] | > 6.00 | > 6.00 | > 5.00 | > 5.00 |  |  |  |  |  | 
Nc1nc2cc(-c3ccc4oc(N)nc4c3)ccc2o1 [Compound 240] | > 6.00 |  | > 5.00 | > 5.00 |  |  |  |  |  | 
Nc1nc2cc(-c3ccc4ncc(N5CC(N6CCOCC6)C5)nc4c3)ccc2o1 [Compound 273] | > 7.00 | < 5.00 | < 5.00 | > 6.00 |  |  |  |  |  | 
CN1CCN(C2CN(c3cnc4ccc(-c5ccc6oc(N)nc6c5)cc4n3)C2)CC1 [Compound 274] | > 7.00 | > 5.00 | > 5.00 | > 5.00 |  |  |  |  |  | 
CN(C)[C@@H]1CCN(c2cnc3ccc(-c4ccc5oc(N)nc5c4)cc3n2)C1 [Compound 378] | > 7.00 | > 7.00 | > 5.00 | > 6.00 |  |  |  |  |  | 
Nc1nc2cc(-c3ccc4ncc(N5CCNC(C(F)(F)F)C5)nc4c3)ccc2o1 (stereo not shown) [Compound 384] | > 7.00 | > 6.00 | > 5.00 | > 6.00 |  |  |  |  |  | 
COc1ncc(-c2ccc3ncn(C4CCN(C(C)C)CC4)c(=O)c3c2)cc1NS(=O)(=O)c1ccccc1 [Compound 522] | > 7.00 | > 7.00 | > 7.00 |  | > 7.00 |  |  |  |  | 
CC(C)N1CCC(n2cnc3ccc(-c4cnc(Cl)c(NS(C)(=O)=O)c4)cc3c2=O)CC1 [Compound 523] | > 7.00 | > 6.00 | > 7.00 |  | > 7.00 |  |  |  |  | 
COc1ncc(-c2ccc3ncn(C4CCN(C)CC4)c(=O)c3c2)cc1NS(=O)(=O)c1ccccc1 [Compound 524] | > 7.00 | > 7.00 | > 7.00 |  | > 6.00 |  |  |  |  | 
COc1ncc(-c2ccc3ncn(C4CCN(C)CC4)c(=O)c3c2)cc1NS(C)(=O)=O [Compound 525] | > 7.00 | > 6.00 | > 7.00 |  | > 5.00 |  |  |  |  | 
CN1CCC(n2cnc3ccc(-c4cnc(Cl)c(NS(C)(=O)=O)c4)cc3c2=O)CC1 [Compound 526] | > 7.00 | > 5.00 | > 6.00 |  | < 5.00 |  |  |  |  | 
CN1CCC(n2cnc3ccc(-c4cnc(Cl)c(NS(=O)(=O)c5ccccc5)c4)cc3c2=O)CC1 [Compound 527] | > 7.00 | > 7.00 | > 7.00 |  | > 6.00 |  |  |  |  | 
CN1CC(n2cnc3ccc(-c4ccc5oc(N)nc5c4)cc3c2=O)C1 [Compound 528] | > 6.00 | > 5.00 | < 5.00 |  | < 5.00 |  |  |  |  | 
CN1CC2CN(C(=O)c3cnc4ccc(-c5ccc6oc(N)nc6c5)cn34)CC2C1 (stereo not shown) [Compound 533] | > 7.00 | > 6.00 | > 6.00 |  | > 6.00 |  |  |  |  | 
O=C(c1cnc2ccc(-c3cnc4cn[nH]c4c3)cn12)N1CCOCC1 [Compound 535] | > 5.00 | < 5.00 | < 5.00 |  | < 5.00 |  |  |  |  | 
Nc1nc2cc(-c3cnc4ccc(C(=O)N5C6CCC5COC6)cn34)ccc2o1 [Compound 540] | < 5.00 | < 5.00 | < 5.00 |  | < 5.00 |  |  |  |  | 
CN1CCN(c2nnc3ccc(-c4ccc5nc(N)oc5c4)cn23)CC1 [Compound 542] | < 5.00 | < 5.00 | < 5.00 |  | < 5.00 |  |  |  |  | 
Nc1nc2ccc(-c3ccc4ncc(C(=O)N5CCOCC5)n4c3)cc2[nH]1 [Compound 544] | > 6.00 | < 5.00 | < 5.00 |  | < 5.00 |  |  |  |  | 
CN1CCN(CCc2nnc3ccc(-c4ccc5nc(N)oc5c4)cn23)CC1 [Compound 545] | < 5.00 | < 5.00 | < 5.00 |  | < 5.00 |  |  |  |  | 
Cc1cc(-c2ccc3nc(N)oc3c2)cn2c(N3CCN(C)CC3)nnc12 [Compound 546] | < 5.00 | < 5.00 | < 5.00 |  | < 5.00 |  |  |  |  | 

Structure (SMILES) | pIC50 (PI3K α (p110α/p85α)) | pIC50 (PI3K β (p110β/p85α)) | pIC50 (PI3K δ) | pIC50 (mTOR) | pIC50 (PI3K γ (p110γ)) | pIC50 (PI3K α (p110α/p85α); Table 4 (PI3K α inhibitors)) | pIC50 (PI3K β (p110β/p85α); Table 4 (PI3K α inhibitors)) | pIC50 (mTOR; Table 4 (PI3K α inhibitors)) | pIC50 (PI3K δ; Table 4 (PI3K α inhibitors)) | pIC50 (PI3K γ (p110γ); Table 4 (PI3K α inhibitors))
CN1CCN(Cc2nnc3ccc(-c4ccc5nc(N)oc5c4)cn23)CC1 [Compound 547] | < 5.00 | < 5.00 | < 5.00 |  | < 5.00 |  |  |  |  | 
Cc1cc(-c2ccc3nc(N)oc3c2)cn2c(CCN3CCN(C)CC3)nnc12 [Compound 548] | < 5.00 | < 5.00 | < 5.00 |  | < 5.00 |  |  |  |  | 
Cc1cc(-c2ccc3nc(N)oc3c2)cn2c(CN3CCN(C)CC3)nnc12 [Compound 549] | < 5.00 | < 5.00 | < 5.00 |  | < 5.00 |  |  |  |  | 
Nc1nc2cc(-c3ccc4ncc(C(=O)NCCOCC(=O)O)n4c3)ccc2o1 [Compound 551] | > 7.00 | > 6.00 | > 5.00 |  | > 7.00 |  |  |  |  | 
Nc1nc2cc(-c3ccc4ncc(N5CC(N6CCOCC6)C5)nc4n3)ccc2o1 [Compound 556] |  |  |  |  |  | > 7.00 | < 5.00 | > 5.00 |  | 
Nc1nc2cc(-c3ccc4nc(N5CCOCC5)cnc4n3)ccc2o1 [Compound 558] |  |  |  |  |  | < 5.00 | < 5.00 |  | < 5.00 | < 5.00
C[C@H]1CN(C2CN(c3cnc4ccc(-c5ccc6oc(N)nc6c5)nc4n3)C2)CCN1 [Compound 561] |  |  |  |  |  | > 7.00 | < 5.00 | > 5.00 |  | 
Nc1nc2cc(-c3ccc4ncc(N5CCC(F)(F)CC5)nc4n3)ccc2o1 [Compound 564] |  |  |  |  |  | > 7.00 | < 5.00 |  | < 5.00 | > 7.00
CC1(C)CN(C2CN(c3cnc4ccc(-c5ccc6oc(N)nc6c5)nc4n3)C2)CCO1 [Compound 568] |  |  |  |  |  | > 6.00 | < 5.00 |  | < 5.00 | > 5.00
Nc1nc2cc(-c3ccc4ncc(N5CCOCC5)cc4n3)ccc2o1 [Compound 573] |  |  |  |  |  | > 7.00 | > 6.00 |  | < 5.00 | > 7.00
C[C@H](N)C(=O)N1CCN(c2cnc3ccc(-c4ccc5oc(N)nc5c4)nc3n2)CC1 [Compound 581] |  |  |  |  |  | > 7.00 | > 7.00 |  | > 7.00 | > 7.00
Nc1nc2cc(-c3ccc4ncc(N5CC(N6CCNCC6)C5)nc4n3)ccc2o1 [Compound 585] |  |  |  |  |  | > 6.00 | < 5.00 |  | < 5.00 | < 5.00
Nc1nc2cc(-c3ccc4ncc(N5CC(N6CCN(CC7CC7)CC6)C5)nc4n3)ccc2o1 [Compound 586] |  |  |  |  |  | > 7.00 |  | < 5.00 |  | 
C[C@H](N)C(=O)N1CCN(c2cnc3ccc(-c4ccc5oc(N)nc5c4)nc3c2)CC1 [Compound 589] |  |  |  |  |  | > 7.00 | > 6.00 |  | > 6.00 | > 6.00
C[C@@H](N)C(=O)N1CCN(c2cnc3ccc(-c4ccc5oc(N)nc5c4)nc3c2)CC1 [Compound 590] |  |  |  |  |  | > 7.00 | > 7.00 |  | > 6.00 | > 6.00
CC(C)(N)C(=O)N1CCN(c2cnc3ccc(-c4ccc5oc(N)nc5c4)nc3n2)CC1 [Compound 591] |  |  |  |  |  | > 7.00 |  | < 5.00 |  | 
Nc1nc2cc(-c3ccc4ncc(N5CCN(C(=O)C6(N)CC6)CC5)cc4n3)ccc2o1 [Compound 593] |  |  |  |  |  | > 7.00 | > 6.00 |  | > 6.00 | > 7.00
Nc1nc2cc(-c3ccc4ncc(N5CC(N6CCN(CCO)CC6)C5)nc4n3)ccc2o1 [Compound 597] |  |  |  |  |  | > 7.00 |  | < 5.00 |  | 
Cc1nccn1C1CN(c2cnc3ccc(-c4ccc5oc(N)nc5c4)nc3n2)C1 [Compound 601] |  |  |  |  |  | > 7.00 |  | < 5.00 |  | 
CC1(C)CN(C2CN(c3cnc4ccc(-c5ccc6oc(N)nc6c5)nc4n3)C2)CCN1 [Compound 603] |  |  |  |  |  | > 7.00 |  | < 5.00 | > 6.00 | 
C[C@H]1CN(C2CN(c3cnc4ccc(-c5ccc6oc(N)nc6c5)nc4c3)C2)CCN1 [Compound 605] |  |  |  |  |  | > 7.00 |  | < 5.00 | > 6.00 | 
Nc1nc2cc(-c3ccc4ncc(N5CC(N6CCN(CC7CC7)CC6)C5)cc4n3)ccc2o1 [Compound 611] |  |  |  |  |  | > 7.00 |  | < 5.00 | > 6.00 | 
C[C@H]1COCCN1C1CN(c2cnc3ccc(-c4ccc5oc(N)nc5c4)nc3n2)C1 [Compound 612] |  |  |  |  |  | > 7.00 | < 5.00 | < 5.00 |  | 
CN1CCN(C2CN(c3cnc4ccc(-c5ccc6oc(N)nc6c5)nc4n3)C2)CC1 [Compound 622] |  |  |  |  |  | > 7.00 |  | < 5.00 | > 6.00 | 
CCN1CCN(C2CN(c3cnc4ccc(-c5ccc6oc(N)nc6c5)nc4n3)C2)CC1 [Compound 627] |  |  |  |  |  | > 7.00 |  | > 5.00 |  | 
